Measurements: patent US20040171489A1, “Synergistic active compound combinations for controlling harmful plants” (priority 1998, published 2004)

Key:
winter wheat [1] = assay: Example 9 field trials, application 1-3 leaf stage broad-leaved weeds: crop damage; type: in vivo, Triticum aestivum; details: 100 g of ai/ha; 120 to 160 days after application
Procedure: (§1) The herbicidal efficacy of the active compounds or active compound mixtures was scored visually using the treated plots in comparison to untreated control plots. The damage and development of all above-ground parts of the plants were recorded. Scoring was carried out using a percentage scale (100% effect=all plants killed; 50% effect=50% of the plants and the green parts of the plants killed; 0% effect=no noticeable effect=like control plot. The scores of in each case 4 plots were averaged.
(§2) If the observed activity values already exceed the formal sum of the values for the trials with the individual applications, they also exceed the expected value according to Colby which is calculated using the following formula and which is likewise considered to be an indication of synergism (cf. S. R. Colby; in Weeds 15 (1967) p. 20 to 22):
(§3) Crop plants were grown outdoors on plots under natural outdoor conditions, and seeds or rhizome pieces of typical harmful plants were laid out or the natural weed growth was utilized. Treatment with the compositions according to the invention was carried out after the harmful plants had emerged and the crop plants were, generally, at the 2- to 4-leaf stage; in some cases (as stated), application of individual active compounds or active compound combinations was carried out pre-emergence (cf. Section 1) or post-emergence (cf. Section 2) or as a sequential treatment partly pre-emergence and/or post-emergence. After the application, for example 2, 4, 6 and 8 weeks after the application, the effect of the preparations was scored visually by comparison with untreated controls (cf. scoring in Section 1). In the field trial as well, the compositions according to the invention have synergistic herbicidal activity against a broad spectrum of economically important weed grasses and broad-leaved weeds. […] Moreover, the effects in essential phases of the scoring period were above the expected values according to Colby, also indicating synergism. […]

Alopecurus myosuroides = assay: Example 9 field trials, application 1-3 leaf stage broad-leaved weeds: herbicidal effect; type: in vivo; details: 100 g of ai/ha; 120 to 160 days after application
Procedure: as §1, §2
(§4) Crop plants were grown outdoors on plots under natural outdoor conditions, and seeds or rhizome pieces of typical harmful plants were laid out or the natural weed growth was utilized. Treatment with the compositions according to the invention was carried out after the harmful plants had emerged and the crop plants were, generally, at the 2- to 4-leaf stage; in some cases (as stated), application of individual active compounds or active compound combinations was carried out pre-emergence (cf. Section 1) or post-emergence (cf. Section 2) or as a sequential treatment partly pre-emergence and/or post-emergence. After the application, for example 2, 4, 6 and 8 weeks after the application, the effect of the preparations was scored visually by comparison with untreated controls (cf. scoring in Section 1). In the field trial as well, the compositions according to the invention have synergistic herbicidal activity against a broad spectrum of economically important weed grasses and broad-leaved weeds. […] Moreover, the effects in essential phases of the scoring period were above the expected values according to Colby, also indicating synergism. In contrast, the crop plants were, as a consequence of the treatments with the herbicidal compositions, damaged only to a small degree, if at all.

Capsella bursa-pastoris = assay: as above; type: in vivo; details: 100 g of ai/ha; 120 to 160 days after application
Procedure: as §1, §2, §4

Galium aparine = assay: Example 10 pre-emergence application, fall: herbicidal effect; type: in vivo; details: 169 days after application
Text: (§5) Seeds or rhizome pieces of monocotyledonous and dicotyledonous weed plants are placed in sandy loam soil in pots and covered with soil. The compositions, formulated in the form of concentrated aqueous solutions, wettable powders or emulsion concentrates, are then applied to the surface of the soil cover as aqueous solution, suspension or emulsion at an application rate of 600 to 800 l of water/ha (converted), in various dosages. After the treatment, the pots are placed in a greenhouse and kept under good growth conditions for the weeds. After the test plants have emerged, the damage to the plants or the negative effects on the emergence is scored visually after a test period of 3 to 4 weeks by comparison with untreated controls. As shown by the test results, the compositions according to the invention have good herbicidal pre-emergence activity against a broad spectrum of weed grasses and broad-leaved weeds.
as §1, §2, §4

winter wheat [2] = assay: Example 11 field trial, 2- to 4-leaf stage: crop damage; type: in vivo, Triticum aestivum; details: 28 days after application
Procedure: as §1, §2, §4

Lamium purpurea = assay: Example 12 field trial, 2- to 4-leaf stage: herbicidal effect; type: in vivo; details: 42 days after application
Procedure: as §1, §2, §4

Sorghum verticilliflorum = assay: Example 13 field trial, 2- to 4-leaf stage: herbicidal effect; type: in vivo; details: 17 days after application
Procedure: as §1, §2, §4

summer wheat [3] = assay: Example 13 field trial, 2- to 4-leaf stage: crop damage; type: in vivo, Triticum aestivum; details: 17 days after application
Procedure: as §1, §2, §4

summer wheat [4] = assay: Example 14 field trial, 2- to 4-leaf stage: crop damage; type: in vivo, Triticum aestivum; details: 28 days after application
Procedure: The damage and development of all above-ground parts of the plants were recorded.
Crop plants were grown outdoors on plots under natural outdoor conditions, and seeds or rhizome pieces of typical harmful plants were laid out or the natural weed growth was utilized.

Setaria faberi = assay: Example 17 field trial, pre-emergence: herbicidal effect; type: in vivo; details: 16 days after application
Text: as §5, §1, §2, §4

Zea mays (corn) = assay: Example 17 field trial, pre-emergence: crop damage; type: in vivo; details: 16 days after application
Text: as §5
The herbicidal efficacy of the active compounds or active compound mixtures was scored visually using the treated plots in comparison to untreated control plots. The damage and development of all above-ground parts of the plants were recorded. […]
as §2
Crop plants were grown outdoors on plots under natural outdoor conditions, and seeds or rhizome pieces of typical harmful plants were laid out or the natural weed growth was utilized. […] After the application, for example 2, 4, 6 and 8 weeks after the application, the effect of the preparations was scored visually by comparison with untreated controls (cf. scoring in Section 1). […]

Elusine indica = assay: Example 18 field trial, 3-leaf stage: herbicidal effect; type: in vivo; details: 100 g of ai/ha; 31 days after application
Procedure: as §1, §2, §3

Euphorbia heterophylla = assay: Example 20 field trial, 3-leaf stage: herbicidal effect; type: in vivo; details: 31 days after application
Procedure: as §1, §2, §4

Oryza sativa (rice) = assay: Example 21 field trial, 4-leaf stage: crop damage; type: in vivo; details: 42 days after application
Procedure: as §1, §2, §3

Monochoria vaginalis = assay: Example 22 field trial, 2-leaf stage: herbicidal effect; type: in vivo; details: 14 days after application
Procedure: as §1, §2, §4

SMILES: CC(C)(F)c1nc(N)nc(NC(CCc2ccccc2)C2CCC2)n1 (stereo not drawn) [(A1), 4-amino-6-(1-fluoro-1-methylethyl)-2-(3-phenyl-1-cyclobutylpropylamino)-1,3,5-triazine]
- damage, TRZAW (winter wheat [1]): 0%
- herbicidal effect, ALOMY (Alopecurus myosuroides): 0%
- herbicidal effect, CAPBP (Capsella bursa-pastoris): 88%
- herbicidal effect, GALAP (Galium aparine; 50 g of ai/ha): 45%
- herbicidal effect, GALAP (Galium aparine; 100 g of ai/ha): 45%
- damage, TRZAW (winter wheat [2]; 25 g of ai/ha): 0%
- damage, TRZAW (winter wheat [2]; 50 g of ai/ha): 1%
- damage, TRZAW (winter wheat [2]; 75 g of ai/ha): 1%
- damage, TRZAW (winter wheat [2]; 100 g of ai/ha): 2%
- herbicidal effect, LAMPU (Lamium purpurea; 12.5 g of ai/ha): 25%
- herbicidal effect, LAMPU (Lamium purpurea; 25 g of ai/ha): 65%
- herbicidal effect, LAMPU (Lamium purpurea; 50 g of ai/ha): 70%
- herbicidal effect, SORVE (Sorghum verticilliflorum; 62.5 g of ai/ha): 35%
- herbicidal effect, SORVE (Sorghum verticilliflorum; 125 g of ai/ha): 50%
- damage, TRZAS (summer wheat [3]; 62.5 g of ai/ha): 5%
- damage, TRZAS (summer wheat [3]; 125 g of ai/ha): 13%
- damage, TRZAS (summer wheat [4]; 25 g of ai/ha): 2%
- damage, TRZAS (summer wheat [4]; 50 g of ai/ha): 2%
- damage, TRZAS (summer wheat [4]; 100 g of ai/ha): 5%
- herbicidal effect, SETFA (Setaria faberi; 50 g of ai/ha): 85%
- herbicidal effect, SETFA (Setaria faberi; 100 g of ai/ha): 94%
- damage, ZEAMA (Zea mays (corn); 50 g of ai/ha): 0%
- damage, ZEAMA (Zea mays (corn); 100 g of ai/ha): 0%
- herbicidal effect, ELEIN (Elusine indica): 0%
- herbicidal effect, EPHHL (Euphorbia heterophylla; 25 g of ai/ha): 15%
- herbicidal effect, EPHHL (Euphorbia heterophylla; 50 g of ai/ha): 50%
- herbicidal effect, EPHHL (Euphorbia heterophylla; 100 g of ai/ha): 60%
- damage, ORYSA (Oryza sativa (rice); 25 g of ai/ha): 0%
- damage, ORYSA (Oryza sativa (rice); 50 g of ai/ha): 0%
- damage, ORYSA (Oryza sativa (rice); 100 g of ai/ha): 0%
- herbicidal effect, MOOVA (Monochoria vaginalis; 25 g of ai/ha): 3%
- herbicidal effect, MOOVA (Monochoria vaginalis; 50 g of ai/ha): 90%
- herbicidal effect, MOOVA (Monochoria vaginalis; 100 g of ai/ha): 95%
